The record followed here is patent US20250361230A1, “LATS Inhibitors and Uses Thereof” (The USA, as Represented by the Secretary, Dept. of Heath …, priority 2022, published 2025).

One assay concerns the target AKT (Homo sapiens, UniProt P31749). Briefly: RBC HotSpot kinase assay (33P-ATP, P81 filter-binding), AKT. As to conditions: read-out: AKT IC50. Format: biochemical. An outline of the steps: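 Hepes pH 7.5/MgCl2/EGTA/Brij35/BSA/Na3VO4/DTT buffer, cofactors per kinase; cpd acoustically dispensed, 20 min preinc RT; start w/ 33P-ATP, 2 h RT; P81 filter readout; 10-pt singlet IC50.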

The target in assay [1] is T1, AKT Kinase-NanoLuc fusion in HEK-293 cells (Homo sapiens, UniProt P31749).
T1 construct: host or cells: HEK-293
Briefly: NanoBRET target engagement assay in transfected HEK-293 cells, AKT. It is filed as cell-based. As to conditions: read-out: AKT (Cellular) IC50. An outline of the steps:
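HEK-293 cells transiently transfected with kinase-NanoLuc fusion plasmid for 22-24 h, then incubated with compound and NanoBRET tracer for 1 hour at 37° C. After substrate plus extracellular NanoLuc inhibitor addition, 460 and 600 nm emissions read; no-tracer-corrected BRET ratio used to derive IC50 values.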
Background: BRET reads energy transfer from a luciferase to a nearby fluorophore.

[2] abbreviates: Table 32, biochemical kinase assay.
[3] abbreviates: Table 32, NanoBRET, HEK-293 cells.

The structures appear in SMILES notation. Read-outs that look alike come from different tables or passages of the source.

Sequence of AKT (P31749 whole entry): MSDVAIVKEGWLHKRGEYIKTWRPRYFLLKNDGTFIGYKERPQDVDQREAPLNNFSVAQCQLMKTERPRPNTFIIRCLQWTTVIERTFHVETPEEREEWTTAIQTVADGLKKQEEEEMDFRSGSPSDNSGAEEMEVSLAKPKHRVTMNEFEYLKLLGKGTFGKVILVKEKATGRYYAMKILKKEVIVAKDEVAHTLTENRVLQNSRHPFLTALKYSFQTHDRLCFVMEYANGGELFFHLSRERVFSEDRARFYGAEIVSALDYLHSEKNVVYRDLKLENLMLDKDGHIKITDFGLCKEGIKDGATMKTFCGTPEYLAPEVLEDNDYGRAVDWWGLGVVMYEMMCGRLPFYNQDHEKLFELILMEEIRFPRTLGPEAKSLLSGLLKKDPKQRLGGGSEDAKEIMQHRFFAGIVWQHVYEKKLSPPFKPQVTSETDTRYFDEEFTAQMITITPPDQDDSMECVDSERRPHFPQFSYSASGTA
T1 sequence (P31749 whole entry, the tested form may be a part): as the sequence (P31749 whole entry) above

As a reminder, the IC50 is the point on the concentration scale where inhibition reaches its midpoint. Consider `NCC(O)(c1ccc(Cl)cc1)c1ccc(-c2ccnc3[nH]cc(Br)c23)nc1` (stereo not shown) [Compound 1011, 2-amino-1-(6-(3-bromo-1H-pyrrolo[2,3-b]pyridin-4-yl)pyridin-3-yl)-1-(4-chlorophenyl)ethan-1-ol], for which the half-inhibitory concentration (IC50) on AKT (setting [2]) came to 1 nM; in assay [1] (setting [3]) it was 76.3 nM.
`NCC(=O)NCC(O)(c1ccc(Cl)cc1)c1ccc(-c2ccnc3[nH]cc(Cl)c23)cc1` (stereo not shown) [Compound 1021, 2-amino-N-(2-(4-(3-chloro-1H-pyrrolo[2,3-b]pyridin-4-yl)phenyl)-2-(4-chlorophenyl)-2-hydroxyethyl) acetamide]: the IC50 is less than 0.5 nM on AKT (setting [2]) and 12 nM in assay [1] (setting [3]).
For `Cc1cc(-c2ccnc3[nH]cc(C#N)c23)cc(F)c1[C@@]1(O)[C@H](C)CN(C2CCS(=O)(=O)CC2)C[C@@H]1C` [Compound 2002, 4-(4-((3S,4s,5R)-1-(1,1-dioxidotetrahydro-2H-thiopyran-4-yl)-4-hydroxy-3,5-dimethylpiperidin-4-yl)-3-fluoro-5-methylphenyl)-1H-pyrrolo[2,3-b]pyridine-3-carbonitrile], the IC50 on AKT (biochemical kinase inhibition) was 188 nM; in assay [1] (cellular), 57900 nM.
In the same order, the values of `Cc1cc(-c2ccnc3[nH]cc(C#N)c23)cc(F)c1[C@@]1(O)[C@H](C)CN(C(=O)CN)C[C@@H]1C` [Compound 2004, 4-(3-fluoro-4-((3S,4s,5R)-1-glycyl-4-hydroxy-3,5-dimethylpiperidin-4-yl)-5-methylphenyl)-1H-pyrrolo[2,3-b]pyridine-3-carbonitrile] are 118 nM and 51700 nM.
In the same order, the values of `Cc1cc(-c2ccnc3[nH]cc(C#N)c23)ccc1[C@@]1(O)[C@H](C)CN(C(=O)CN)C[C@@H]1C` [Compound 2005, 4-(4-((3S,4s,5R)-1-glycyl-4-hydroxy-3,5-dimethylpiperidin-4-yl)-3-methylphenyl)-1H-pyrrolo[2,3-b]pyridine-3-carbonitrile] are 22 nM and 56800 nM.
As to `Cc1cc(-c2ccnc3[nH]cc(C#N)c23)cc(F)c1[C@@]1(O)[C@H](C)CN(C(=O)[C@H](N)CO)C[C@@H]1C` [Compound 2007, 4-(4-((3S,4S,5R)-1-(D-seryl)-4-hydroxy-3,5-dimethylpiperidin-4-yl)-3-fluoro-5-methylphenyl)-1H-pyrrolo[2,3-b]pyridine-3-carbonitrile], the results for the IC50 (on AKT (biochemical kinase inhibition); in assay [1] (cellular)) were 159 nM and greater than 50000 nM, respectively.
On the same counts, the results for `Cc1cc(-c2ccnc3[nH]cc(C#N)c23)cc(F)c1[C@@]1(O)[C@H](C)CN(C(=O)[C@](C)(N)CO)C[C@@H]1C` [Compound 2008, 4-(4-((3S,4s,5R)-1-(2-amino-3-hydroxy-2-methylpropanoyl)-4-hydroxy-3,5-dimethylpiperidin-4-yl)-3-fluoro-5-methylphenyl)-1H-pyrrolo[2,3-b]pyridine-3-carbonitrile] are 262 nM and greater than 50000 nM.
For the molecule `Cc1cc(-c2ccnc3[nH]cc(C#N)c23)cc(F)c1[C@@]1(O)[C@H](C)CN(C(=O)[C@H](C)N)C[C@@H]1C` [Compound 2011, 4-(4-((3S,4R,5R)-1-(L-alanyl)-4-hydroxy-3,5-dimethylpiperidin-4-yl)-3-fluoro-5-methylphenyl)-1H-pyrrolo[2,3-b]pyridine-3-carbonitrile], the IC50 at AKT (biochemical kinase inhibition) was 1030 nM; in assay [1] (cellular) it was greater than 50000 nM.
On the same counts, the results for `CNCC(=O)N1C[C@@H](C)[C@](O)(c2c(C)cc(-c3ccnc4[nH]cc(C#N)c34)cc2F)[C@@H](C)C1` [Compound 2012, 4-(3-fluoro-4-((3S,4s,5R)-4-hydroxy-3,5-dimethyl-1-(methylglycyl)piperidin-4-yl)-5-methylphenyl)-1H-pyrrolo[2,3-b]pyridine-3-carbonitrile] are 349 nM and greater than 50000 nM.
In the same order, the values of `Cc1cc(-c2ccnc3[nH]cc(C#N)c23)cc(F)c1[C@@]1(O)[C@H](C)CN(C(=O)CNCC(F)(F)F)C[C@@H]1C` [Compound 2014, 4-(3-fluoro-4-((3S,4s,5R)-4-hydroxy-3,5-dimethyl-1-((2,2,2-trifluoroethyl)glycyl)piperidin-4-yl)-5-methylphenyl)-1H-pyrrolo[2,3-b]pyridine-3-carbonitrile] are 3010 nM and greater than 50000 nM.
On the same counts, the results for `Cc1cc(-c2ccnc3[nH]cc(C#N)c23)cc(F)c1[C@@]1(O)[C@H](C)CN(C(=O)[C@@H](C)N)C[C@@H]1C` [Compound 2015, 4-(4-((3S,4S,5R)-1-(D-alanyl)-4-hydroxy-3,5-dimethylpiperidin-4-yl)-3-fluoro-5-methylphenyl)-1H-pyrrolo[2,3-b]pyridine-3-carbonitrile] are 236 nM and greater than 50000 nM.
For the molecule `Cc1cc(-c2ccnc3[nH]cc(C#N)c23)cc(F)c1[C@@]1(O)[C@H](C)CN(C(=O)C(N)C(F)(F)F)C[C@@H]1C` (stereo partly drawn) [Compound 2017, 4-(4-((3S,4s,5R)-1-(2-amino-3,3,3-trifluoropropanoyl)-4-hydroxy-3,5-dimethylpiperidin-4-yl)-3-fluoro-5-methylphenyl)-1H-pyrrolo[2,3-b]pyridine-3-carbonitrile], the concentration for half-maximal inhibition (IC50) on AKT (biochemical kinase inhibition) is 2050 nM; in assay [1] (cellular) it was greater than 50000 nM.
On the same counts, the results for `Cc1cc(-c2ccnc3[nH]cc(C#N)c23)cc(F)c1[C@@]1(O)[C@H](C)CN(C(=O)[C@H](CO)N(C)C)C[C@@H]1C` [Compound 2023, 4-(4-((3S,4R,5R)-1-(dimethyl-L-seryl)-4-hydroxy-3,5-dimethylpiperidin-4-yl)-3-fluoro-5-methylphenyl)-1H-pyrrolo[2,3-b]pyridine-3-carbonitrile] are 388 nM and greater than 50000 nM.
Regarding `Cc1cc(-c2ccnc3[nH]cc(C#N)c23)cc(F)c1[C@@]1(O)[C@H](C)CNC[C@@H]1C` [Compound 2024, 4-(3-fluoro-4-((3S,4s,5R)-4-hydroxy-3,5-dimethylpiperidin-4-yl)-5-methylphenyl)-1H-pyrrolo[2,3-b]pyridine-3-carbonitrile], the concentration for half-maximal inhibition (IC50) on AKT (biochemical kinase inhibition) was 334 nM; in assay [1] (cellular), greater than 50000 nM.
